Here are results for three compounds from PubChem BioAssay (NCI).

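Dose response: 5 concentrations. Exposure: 48 h. Format: 96-well plates. Endpoint: linear interpolation; highest concentration if not reached. GI50 is the concentration that inhibits growth by half. Definition used: TGI = concentration required for complete inhibition of growth.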

Some test systems named below: SK-OV-3 ovarian; EKVX NSCLC; KM12 colon; HCT-116 colon; IGROV1 ovarian; RXF 393 renal; MALME-3M melanoma; SF-295 CNS; SNB-75 CNS; HL-60(TB) leukemia.
What all share (assay): NCI tumour cell line growth inhibition, 48 h

On to `COC(=O)/C=C/c1cc(OC(C)=O)c2c(c1)[C@@H](C(=O)OC)[C@H](c1ccc(OC(C)=O)c(OC(C)=O)c1)O2`, for which the GI50 is 0.417 µM with SK-OV-3 ovarian; 2.38 µM with EKVX NSCLC; 0.203 µM with KM12 colon; 0.0485 µM in the experiment on HCT-116 colon; 0.176 µM in the experiment on IGROV1 ovarian; 0.075 µM in the experiment with RXF 393 renal. Besides, the GI50 with MALME-3M melanoma is 0.0512 µM; in the experiment on SF-295 CNS, 0.285 µM; in the experiment with SNB-75 CNS, 0.0191 µM; in the experiment on HL-60(TB) leukemia it was 0.0288 µM. Moreover, the TGI in the experiment with SK-OV-3 ovarian is 41.9 µM; in the experiment on EKVX NSCLC it was > 94.3 µM; in the experiment with KM12 colon it was 18.7 µM; with HCT-116 colon it was > 59.9 µM; in the experiment with IGROV1 ovarian, 38.3 µM; in the experiment with RXF 393 renal, 3.03 µM. In addition, the TGI with MALME-3M melanoma turned out to be 48.7 µM; with SF-295 CNS it was 11.4 µM; in the experiment with SNB-75 CNS, 1.48 µM; with HL-60(TB) leukemia, 0.0934 µM.

Turning to `O=C1c2ccccc2C(=O)c2c(/C=C\N3CCCCC3)ccnc21`, the TGI in the experiment on SK-OV-3 ovarian is 50.9 µM; with EKVX NSCLC, 31.2 µM; with KM12 colon, 18 µM; with HCT-116 colon, 5.89 µM; in the experiment on IGROV1 ovarian it was 36.8 µM; in the experiment with RXF 393 renal, 23.1 µM. Moreover, the TGI worked out at 1.67 µM in the experiment with MALME-3M melanoma, 5.25 µM in the experiment with SF-295 CNS, 7.2 µM with SNB-75 CNS and 27.8 µM in the experiment with HL-60(TB) leukemia.

Take `CCCOc1nc(N)c2cnn(C3CCCCO3)c2n1` (stereo not given): the TGI in the experiment with SK-OV-3 ovarian, in the experiment on EKVX NSCLC, in the experiment on KM12 colon, in the experiment with HCT-116 colon, in the experiment with IGROV1 ovarian and in the experiment with RXF 393 renal was > 100 µM throughout. The TGI in the experiment on MALME-3M melanoma, with SF-295 CNS, in the experiment with SNB-75 CNS and in the experiment with HL-60(TB) leukemia was > 100 µM throughout.
